# Test results as given in patent US9937198B2, “Multi-functional composition and preparation method and application thereof” (Suzhou Sciscape Bio-Pharmaceutical Technology Co., Ltd., priority 2013, dated 2018).
# Values joined by “and” are separate entries in the source; they are usually repeats but may differ in a detail not shown here. Identical values can stand only once.
# Legend:
# healthy volunteers = assay: Effect on blood glucose level in normal people; assay type: in vivo, human; settings: for effect on blood glucose level in normal people / Blood glucose level after administration: 200 mL oral; for Blood glucose level after administration / Blood glucose level before administration: individual healthy volunteers; for Blood glucose level before administration: fasting baseline
# Experimental: Six healthy volunteers were fasted overnight and then were measured for fasting blood glucose. Thereafter, they were orally administered with 200 mL of the solution of Composition 1, or 200 mL of the solution of trehalose (0.15 g/mL), or 200 mL of the solution of validamycin (0.3 mg/mL), or 200 mL of distilled water, as stated in Table 3.2. The blood glucose level in every volunteer was tested before administration and 30 min, 60 min and 120 min post administration.
# normal mice [1] = assay: Defecation quantity and body weight changes in normal mice (sliming); assay type: in vivo
# Experimental: (§1) Male ICR mice, 8 weeks old and 20±2 g in body weight, were purchased from Beijing HFK Bioscience Co., Ltd.
# (§2) The solutions of Compositions 1 to 7 prepared in this example were used.
# After the mice were fed normally for 3 days, they were given no food but water for 4 h. By body weight, they were randomly divided into 11 groups, i.e., a blank control group, administration groups 1 to 7 and negative control groups 1 to 3. The mice in administration groups 1 to 7 were intragastrically administered with the solutions of Compositions 1 to 7 respectively at a dose of 13.3 mL/kg body weight. On the other hand, the mice in the blank control group were intragastrically given sterile water for medical use at a dose of 13.3 mL/kg body weight. Further, the mice in negative control groups 1 to 3 were intragastrically given the solution of trehalose (0.15 g/mL), the solution of validamycin (0.3 mg/mL) and the solution of algal polysaccharides (0.15 g/mL) respectively at a dose of 13.3 mL/kg body weight. At 20 to 30 min post administration, mice were allowed to eat freely and the defecation quantity in the mice from each group before and after administration (average feces quantity of the mice in each group), the percentages of defecation quantities before and after administration based on the total defecation quantities throughout the experiment and the body weight were recorded.
# [2] = test system: patients with type-II diabetes; assay: Short-term experiment for treatment in human diabetics; assay type: in vivo; settings: for effect on blood glucose level in patients with type-II diabetes, short-term / Blood glucose level after administration: 200 mL oral; for Blood glucose level after administration / Blood glucose level before administration: individual type-II diabetes patients; for Blood glucose level before administration: fasting baseline
# Experimental: Six patients with type-II diabetes were fasted overnight and then measured for fasting blood glucose level. Then they were orally administered with 200 mL of the solution of Composition 1, or 200 mL of solution of trehalose (0.15 g/mL), or 200 mL of the solution of validamycin (0.3 mg/mL), or 200 mL of distilled water, as stated in Table 3.3. The blood glucose level in every patient was tested before administration and 30 min, 60 min and 120 min post administration.
# normal mice [3] = assay: Loaded swimming in normal mice; assay type: in vivo; settings: 2 g weight on tail, 20 min after 13.3 mL/kg intragastric
# Excerpt: Female ICR mice, 8 weeks old and 20±2 g in body weight, were purchased from Beijing HFK Bioscience Co., Ltd.
# The solutions of Composition 1 to 7 prepared in this example were used.
# After the mice were fed normally for 3 days, they were randomly divided into 11 groups by body weight, i.e., a blank control group, administration groups 1 to 7 and negative control groups 1 to 3. The mice in administration groups 1 to 7 were intragastrically administered with the solution of Compositions 1 to 7 respectively a dose of 13.3 mL/kg body weight while the mice in the blank control group were intragastrically given sterile water for medical use at a dose of 13.3 mL/kg body weight. The mice in negative control groups 1 to 3 were intragastrically given the solution of trehalose (0.15 g/mL), the solution of validamycin (0.3 mg/mL) and the solution of algal polysaccharides (0.15 g/mL) respectively at a dose of 13.3 mL/kg body weight. Twenty minutes after the administration, a weight of 2 g was fixed to the tail of each mouse and the mice were put into a pool to swim with load. The bath temperature was 25±2° C., and the depth was more than 30 cm. The survival time in the loaded swimming was recorded (when all parts of a mouse were under water for 10 s, the mouse was considered to be unable to rise to the surface).
# human skin = assay: Determination of moisture content in human skin; assay type: in vivo
# Excerpt: 1. Subjects and Materials
# One hundred and ten people were selected from the volunteers who participating in this test. They were females at the age of 30 to 55 with skin moisture content below 12%.
# Solutions of Composition 1 to 7 prepared in this example were used except that the sterile water for medical use was replaced with warm water.
# By skin moisture content, the subjects were randomly divided into 11 groups, i.e., a blank control group, administration groups 1 to 7 and negative control groups 1 to 3. The subjects in administration groups 1 to 7 respectively took 200 mL of the solution of Compositions 1 to 7 twice a day at 9 am and 9 pm while the subjects in the blank control group took 200 mL of warm water at the same time. In addition, the subjects in negative control groups 1 to 3 respectively took 200 mL of the solution of trehalose (0.15 g/mL), 200 mL of the solution of validamycin (0.3 mg/mL) and 200 mL of the solution of algal polysaccharides (0.15 g/mL). The administration lasted for 30 days. Skin moisture content was determined before administration and after administration. The determination was conducted in a spacious and well ventilated examination room. When the subjects were calm, the location to be determined was cleaned with sterile cotton ball soaked with distilled water. Fifteen minutes after the location was wiped dry, the skin moisture content was determined by skin moisture tester under the trademark of “KAKUSAN”.
# normal mice [4] = assay: Sleep in normal mice with subdissociative sodium pentobarbital; assay type: in vivo; settings: 13.3 mL/kg intragastric; sodium pentobarbital 15 mg/kg i.p. 20 to 30 min later
# Experimental: as §1, §2
# After the mice were fed normally for 3 days, they were given no food but water for 18 to 24 h. By body weight, the mice were randomly divided into 11 groups, i.e., a blank control group, administration groups 1 to 7 and negative control groups 1 to 3. The mice in administration groups 1 to 7 were intragastrically administered with the solutions of Compositions 1 to 7 at a dose of 13.3 mL/kg body weight while the mice in the blank control group were intragastrically given sterile water for medical use at a dose of 13.3 mL/kg body weight. The mice in negative control groups 1 to 3 were intragastrically given the solution of trehalose (0.15 g/mL), the solution of validamycin (0.3 mg/mL) and the solution of algal polysaccharides (0.15 g/mL) at a dose of 13.3 mL/kg body weight respectively. Twenty to 30 min post administration, all mice were intraperitoneally injected with sodium pentobarbital at a subdissociative dose (15 mg/kg). The time when the righting reflex disappeared and sleep duration of the mice were recorded.
# [5] = after administration, 13.3 mL/kg intragastric
# [6] = after administration, 200 mL twice a day for 30 days
# [7] = 30 min, listed as Solution of validamycin
# [8] = 60 min, listed as Solution of validamycin
# [9] = 120 min, listed as Solution of validamycin
# [10] = listed as Solution of validamycin
Compound,effect on blood glucose level in normal people (healthy volunteers),Body weight (normal mice [1]; [5]) [g],Percentage of defecation quantity in each stage based the total defecation quantity (normal mice [1]; [5]) [%],defecation quantity (normal mice [1]; [5]) [g],Body weight (normal mice [1]; before administration) [g],Percentage of defecation quantity in each stage based the total defecation quantity (normal mice [1]; before administration) [%],defecation quantity (normal mice [1]; before administration) [g],"effect on blood glucose level in patients with type-II diabetes, short-term [2]",Survival time (normal mice [3]) [min],Skin moisture content (human skin; [6]) [%],Skin moisture content (human skin; before administration) [%],Sleep duration (normal mice [4]) [min],Time when righting reflex disappeared (normal mice [4]) [min],also measured
OC[C@H]1O[C@H](O[C@H]2O[C@H](CO)[C@@H](O)[C@H](O)[C@H]2O)[C@H](O)[C@@H](O)[C@@H]1O [trehalose],significantly raised blood glucose level,19.10,37.84,0.70 ± 0.01,19.80,62.16,1.15 ± 0.03,significantly raised the blood glucose level,13.45 ± 2.54,8.52 ± 0.55,8.55 ± 0.68,30.54 ± 2.17,2.49 ± 0.14,Blood glucose level after administration (healthy volunteers; 30 min): 9.3 mmol/L; Blood glucose level after administration (healthy volunteers; 60 min): 8.4 mmol/L; Blood glucose level after administration (healthy volunteers; 120 min): 7.1 mmol/L; Blood glucose level before administration (healthy volunteers): 7.0 mmol/L; Blood glucose level after administration ([2]; 30 min): 25.5 mmol/L; Blood glucose level after administration ([2]; 60 min): 20.1 mmol/L; Blood glucose level after administration ([2]; 120 min): 17.3 mmol/L; Blood glucose level before administration [2]: 15.3 mmol/L
OCC1=C[C@H](N[C@H]2C[C@H](CO)[C@@H](O[C@@H]3O[C@H](CO)[C@@H](O)[C@H](O)[C@H]3O)[C@H](O)[C@H]2O)[C@H](O)[C@@H](O)[C@@H]1O [validamycin],had not effect on the blood glucose level,19.45,35.26,0.67 ± 0.05,20.12,64.74,1.23 ± 0.04,had no influence on blood glucose level,12.54 ± 1.08,8.35 ± 0.47,8.21 ± 0.98,29.87 ± 1.58,3.11 ± 0.21,"Blood glucose level after administration (healthy volunteers; [7]): 6.3 mmol/L and 6.7 mmol/L; Blood glucose level after administration (healthy volunteers; [8]): 6.2 mmol/L and 6.6 mmol/L; Blood glucose level after administration (healthy volunteers; [9]): 5.9 mmol/L and 5.3 mmol/L; Blood glucose level before administration (healthy volunteers; [10]): 6.0 mmol/L and 5.3 mmol/L; Blood glucose level after administration [2, 7]: 9.5 mmol/L and 15.7 mmol/L; Blood glucose level after administration [2, 8]: 9.6 mmol/L and 16.1 mmol/L; Blood glucose level after administration [2, 9]: 9.1 mmol/L and 14.8 mmol/L; Blood glucose level before administration [2, 10]: 9.3 mmol/L and 15.5 mmol/L"
